Experimental data from patent publication US11780833B2, “Emetine derivatives, prodrugs containing same, and methods of treating conditions using same” (HOWARD UNIVERSITY, priority 2011, dated 2023).

Legend:
[1] = pH-responsiveness by HPLC: emetine released in aqueous phosphate buffer; assay type: physicochemical; settings: 37° C.
Protocol: Relative rates of hydrolysis of the compounds listed in Table 5 below over a 48 hour period were evaluated using the percent emetine released from the acid catalyzed hydrolysis of compounds 1 to 6.
The compounds were incubated in aqueous phosphate buffer at pH 5.5, 6.5 and 7.4 at 37° C. over a 48 hour period. High performance liquid chromatography (HPLC) was employed to analyze the samples and quantify how much emetine was released. The compounds whose hydrolysis to emetine is shown in table 5 are all 100% stable at physiological pH 7.4 up to a 5 day exposure.

LNCaP cells = experiment: Cytotoxicity in LNCaP prostate cancer cell line; assay type: cell-based; settings: Homo sapiens, 168 h, read-out: IC50 after 7 days
Protocol: (§1) Studies were carried out on three prostate cancer cell lines: LNCaP, PC3, and DU145. […] There was not a significant difference in cytotoxicity of emetine between days 3 and 7. […] This increase is most likely due to the release of emetine from the dithiocarbamate salt over the time period. Further drug release studies at pH 5 confirmed about 45% release of emetine from the dithiocarbamate salt after 3-day incubation at this acidic pH maintained at 37° C., whereas release of emetine from the dithiocarbamate salt was not observed at physiological pH (e.g., about 7.4).
(§2) Various compounds prepared according to Examples 1-5 were studied in LNCaP, PC3, and DU145 cells.

PC3 cells = experiment: cells; assay type: cell-based; settings: Homo sapiens, PC-3, 168 h, read-out: IC50 after 7 days
Protocol: as §1, §2
(§3) Various compounds prepared according to Example 6 were studied in DU145 and PC3 cells. The IC50 was determined at 3, 5, and 7 days.

DU145 cells = experiment: cells; assay type: cell-based; settings: Homo sapiens, DU-145, 168 h, read-out: IC50 after 7 days
Protocol: as §1, §2, §3

With `CCC1CN2CCc3cc(OC)c(OC)cc3C2CC1CC1c2cc(OC)c(OC)cc2CCN1C(=O)/C=C\C(=O)O` (stereo not drawn) [Compound 2] as the compound, how does the “% Emetine at pH 5.5” value ([1]; pH 5.5, 0 hr) read?
The value was 0.0%.

And the “% Emetine at pH 5.5” value ([1]; pH 5.5, 24 hrs)?
The value was 36.3%.

What about the “% Emetine at pH 5.5” value ([1]; pH 5.5, 48 hrs) of the same compound?
The value was 54.10%.

And the “% Emetine at pH 6.5” value ([1]; pH 6.5, 0 hr)?
The value was 0.0%.

And the “% Emetine at pH 6.5” value ([1]; pH 6.5, 24 hrs)?
The value was 35.5%.

What about the “% Emetine at pH 7.4 to 8.0 over 72 hrs” value ([1]; pH 7.4 to 8.0, 0 hrs) of the same compound?
The value was 0.0%.

What about the “% Emetine at pH 7.4 to 8.0 over 72 hrs” value ([1]; pH 7.4 to 8.0, 24 hrs) of the same compound?
The value was 0.0%.

And the “% Emetine at pH 7.4 to 8.0 over 72 hrs” value ([1]; pH 7.4 to 8.0, 48 hrs)?
Its value is 0.0%.

What does the source list for `CCC1CN2CCc3cc(OC)c(OC)cc3C2CC1CC1c2cc(OC)c(OC)cc2CCN1C(=O)/C=C(/C)C(=O)O` (stereo not drawn) [Compound 3]?
% Emetine at pH 5.5 ([1]; pH 5.5, 0 hr): 0.0%; % Emetine at pH 5.5 ([1]; pH 5.5, 24 hrs): 78.1%; % Emetine at pH 5.5 ([1]; pH 5.5, 48 hrs): 93.4%; % Emetine at pH 6.5 ([1]; pH 6.5, 0 hr): 0.0%; % Emetine at pH 6.5 ([1]; pH 6.5, 24 hrs): 76.8%; % Emetine at pH 6.5 ([1]; pH 6.5, 48 hrs): 82.7%; % Emetine at pH 7.4 to 8.0 over 72 hrs ([1]; pH 7.4 to 8.0, 0 hrs): 0.0%; % Emetine at pH 7.4 to 8.0 over 72 hrs ([1]; pH 7.4 to 8.0, 24 hrs): 0.0%; % Emetine at pH 7.4 to 8.0 over 72 hrs ([1]; pH 7.4 to 8.0, 48 hrs): 0.0%

Which “% Emetine at pH 5.5” value ([1]; pH 5.5, 0 hr) does the source give for `CCC1CN2CCc3cc(OC)c(OC)cc3C2CC1CC1c2cc(OC)c(OC)cc2CCN1C(=O)/C=C\C(=O)O` (stereo not drawn) [Compound 4] here?
Its value is 0.0%.

What about the “% Emetine at pH 5.5” value ([1]; pH 5.5, 24 hrs) of the same compound?
Its value is 19.2%.

And the “% Emetine at pH 5.5” value ([1]; pH 5.5, 48 hrs)?
Its value is 27.1%.

What about the “% Emetine at pH 6.5” value ([1]; pH 6.5, 0 hr) of the same compound?
The value was 0.0%.

And the “% Emetine at pH 6.5” value ([1]; pH 6.5, 24 hrs)?
Its value is 8.2%.

And the “% Emetine at pH 6.5” value ([1]; pH 6.5, 48 hrs)?
Its value is 17.1%.

What about the “% Emetine at pH 7.4 to 8.0 over 72 hrs” value ([1]; pH 7.4 to 8.0, 0 hrs) of the same compound?
The value was 0.0%.

What about the “% Emetine at pH 7.4 to 8.0 over 72 hrs” value ([1]; pH 7.4 to 8.0, 24 hrs) of the same compound?
Its value is 0.0%.

And the “% Emetine at pH 7.4 to 8.0 over 72 hrs” value ([1]; pH 7.4 to 8.0, 48 hrs)?
Its value is 0.0%.

Which results are given for `CCC1CN2CCc3cc(OC)c(OC)cc3C2CC1CC1c2cc(OC)c(OC)cc2CCN1C(=S)SCCC(N)=O` (stereo not drawn) [Compound 4b]?
IC50 (LNCaP cells): > 10000 nM; IC50 (PC3 cells): 6560 ± 1110 nM; IC50 (DU145 cells): > 10000 nM

Which results are given for `CCOC(=O)c1ccc(NC(=O)CSC(=S)N2CCc3cc(OC)c(OC)cc3C2CC2CC3c4cc(OC)c(OC)cc4CCN3CC2CC)cc1` (stereo not drawn) [Compound 4c]?
IC50 (LNCaP cells): 1660 ± 564 nM; IC50 (PC3 cells): 2710 ± 192 nM; IC50 (DU145 cells): 2470 ± 263 nM

Which results are given for `CCC1CN2CCc3cc(OC)c(OC)cc3C2CC1CC1c2cc(OC)c(OC)cc2CCN1C(=S)SCCN1C(=O)c2ccccc2C1=O` (stereo not drawn) [Compound 4d]?
IC50 (PC3 cells): 2770 ± 60 nM; IC50 (DU145 cells): 3050 ± 70 nM

What does the source list for `CCC1CN2CCc3cc(OC)c(OC)cc3C2CC1CC1c2cc(OC)c(OC)cc2CCN1C(=S)SCc1ccccc1` (stereo not drawn) [Compound 4f]?
IC50 (LNCaP cells): 1970 ± 88 nM; IC50 (PC3 cells): 1560 ± 290 nM; IC50 (DU145 cells): 1980 ± 213 nM

For `CCC1CN2CCc3cc(OC)c(OC)cc3C2CC1CC1c2cc(OC)c(OC)cc2CCN1C(=S)SCC(=O)Nc1ccc(Br)cc1` (stereo not drawn) [Compound 4g], which IC50 (LNCaP cells) is on record?
Its IC50 is 1700 ± 187 nM.

What about the IC50 (PC3 cells) of the same compound?
Its IC50 is 2770 ± 146 nM.

And the IC50 (DU145 cells)?
The IC50 was 2800 ± 151 nM.

What does the source list for `CCCCCCSC(=S)N1CCc2cc(OC)c(OC)cc2C1CC1CC2c3cc(OC)c(OC)cc3CCN2CC1CC` (stereo not drawn) [Compound 4h]?
IC50 (LNCaP cells): 1610 ± 66 nM; IC50 (PC3 cells): 3030 ± 160 nM; IC50 (DU145 cells): 2300 ± 67 nM

With `CCC1CN2CCc3cc(OC)c(OC)cc3C2CC1CC1c2cc(OC)c(OC)cc2CCN1C(=S)SCC(=O)c1ccc(Cl)cc1` (stereo not drawn) [Compound 4i] as the compound, how does the IC50 (PC3 cells) read?
Its IC50 is 2690 ± 145 nM.

And the IC50 (DU145 cells)?
Its IC50 is 2450 ± 162 nM.

For `CCC1CN2CCc3cc(OC)c(OC)cc3C2CC1CC1c2cc(OC)c(OC)cc2CCN1C(=S)SCCCCC(=O)OC` (stereo not drawn) [Compound 4l], which IC50 (LNCaP cells) is on record?
The IC50 was 2310 ± 174 nM.

And the IC50 (PC3 cells)?
The IC50 was 4860 ± 153 nM.

What about the IC50 (DU145 cells) of the same compound?
The IC50 was 2250 ± 84 nM.

With `CCC1CN2CCc3cc(OC)c(OC)cc3C2CC1CC1c2cc(OC)c(OC)cc2CCN1C(=O)OCc1ccccc1` (stereo not drawn) [Compound 5b] as the compound, how does the IC50 (LNCaP cells) read?
The IC50 was 2160 ± 122 nM.

What does the source list for `CCC1CN2CCc3cc(OC)c(OC)cc3C2CC1CC1c2cc(OC)c(OC)cc2CCN1C(=O)/C=C(/CC(=O)O)C(=O)O` (stereo not drawn) [Compound 6]?
% Emetine at pH 5.5 ([1]; pH 5.5, 0 hr): 0.0%; % Emetine at pH 5.5 ([1]; pH 5.5, 24 hrs): 33.9%; % Emetine at pH 5.5 ([1]; pH 5.5, 48 hrs): 42.1%; % Emetine at pH 6.5 ([1]; pH 6.5, 0 hr): 0.0%; % Emetine at pH 6.5 ([1]; pH 6.5, 24 hrs): 13.4%; % Emetine at pH 6.5 ([1]; pH 6.5, 48 hrs): 21.1%; % Emetine at pH 7.4 to 8.0 over 72 hrs ([1]; pH 7.4 to 8.0, 0 hrs): 0.0%; % Emetine at pH 7.4 to 8.0 over 72 hrs ([1]; pH 7.4 to 8.0, 24 hrs): 0.0%; % Emetine at pH 7.4 to 8.0 over 72 hrs ([1]; pH 7.4 to 8.0, 48 hrs): 0.0%

For `CCC1CN2CCc3cc(OC)c(OC)cc3C2CC1CC1c2cc(OC)c(OC)cc2CCN1S(=O)(=O)c1ccc(C)cc1` (stereo not drawn) [Compound 8a], which IC50 (DU145 cells) is on record?
Its IC50 is 6240 ± 98 nM.

With `CCC1CN2CCc3cc(OC)c(OC)cc3C2CC1CC1c2cc(OC)c(OC)cc2CCN1S(C)(=O)=O` (stereo not drawn) [Compound 8b] as the compound, how does the IC50 (LNCaP cells) read?
Its IC50 is 2100 ± 284 nM.

And the IC50 (PC3 cells)?
Its IC50 is 4010 ± 868 nM.

With `CCC1CN2CCc3cc(OC)c(OC)cc3C2CC1CC1c2cc(OC)c(OC)cc2CCN1S(=O)(=O)c1ccc(F)cc1` (stereo not drawn) [Compound 8c] as the compound, how does the IC50 (PC3 cells) read?
Its IC50 is 4580 ± 383 nM.

And the IC50 (DU145 cells)?
Its IC50 is 8038 ± 60 nM.

Which IC50 (PC3 cells) does the source give for `CCC1CN2CCc3cc(OC)c(OC)cc3C2CC1CC1c2cc(OC)c(OC)cc2CCN1S(=O)(=O)c1ccc(Cl)cc1` (stereo not drawn) [Compound 8d] here?
Its IC50 is 4210 ± 435 nM.

What about the IC50 (DU145 cells) of the same compound?
Its IC50 is 6620 ± 167 nM.

For `CCC1CN2CCc3cc(OC)c(OC)cc3C2CC1CC1c2cc(OC)c(OC)cc2CCN1S(=O)(=O)c1ccccc1` (stereo not drawn) [Compound 8e], which IC50 (LNCaP cells) is on record?
Its IC50 is 2260 ± 798 nM.

What about the IC50 (PC3 cells) of the same compound?
The IC50 was > 10000 nM.

What about the IC50 (DU145 cells) of the same compound?
The IC50 was > 10000 nM.

For `CCC1CN2CCc3cc(OC)c(OC)cc3C2CC1CC1c2cc(OC)c(OC)cc2CCN1S(=O)(=O)c1ccc(OC)cc1` (stereo not drawn) [Compound 8f], which IC50 (PC3 cells) is on record?
The IC50 was 6080 ± 105 nM.
